Test results taken from US12180198B2, “Ribocil C antibiotics effective for Gram-negative pathogens” (THE BOARD OF TRUSTEES OF THE UNIVERSITY OF ILLINOIS, priority 2018, dated 2024).
Values after ≈ are worked out from the molar mass of the structure shown. Where a name gives a salt, the structure may show the parent alone. Read-outs that look alike come from different tables or passages of the source.

Assays:
Type in all cases: cell-based
A. baumannii F19521 = assay: MIC, micro-dilution broth method; conditions: Acinetobacter baumannii
Procedure: (§1) Compounds were evaluated against a panel of Gram-positive and Gram-negative organisms. MIC values were determined using the micro-dilution broth method as outlined by the Clinical and Laboratory Standards Institute (clsi.org/) and are listed in […]. All experiments were performed in biological triplicate.
(§2) Antimicrobial susceptibility tests. Susceptibility testing was performed in biological triplicate, using the micro-dilution broth method as outlined by the Clinical and Laboratory Standards Institute. Bacteria were cultured with cation-adjusted Muller-Hinton broth (Sigma-Aldrich, Cat #90922) in round-bottom 96-well plates (Corning, Cat #3788). Human serum (pooled gender, 0.2 μm filtered) was purchased from BioIVT (Hicksville, NY).

A. baumannii KB304 = assay: MIC, micro-dilution broth method; conditions: Acinetobacter baumannii
Procedure: as §1, §2

A. baumannii KB343 = assay: MIC, micro-dilution broth method; conditions: Acinetobacter baumannii
Procedure: as §1, §2

A. baumannii KB357 = assay: MIC, micro-dilution broth method; conditions: Acinetobacter baumannii
Procedure: as §1, §2

A. baumannii M13100 = assay: MIC, micro-dilution broth method; conditions: Acinetobacter baumannii
Procedure: as §1, §2

A. baumannii W41979 = assay: MIC, micro-dilution broth method; conditions: Acinetobacter baumannii
Procedure: as §1, §2

A. baumannii WO22 = assay: MIC, micro-dilution broth method; conditions: Acinetobacter baumannii
Procedure: as §1, §2

E. cloacae ATCC 29893 = assay: MIC, micro-dilution broth method; conditions: Enterobacter cloacae, ATCC29893
Procedure: as §1, §2

E. cloacae BAA-2341 = assay: MIC, micro-dilution broth method; conditions: Enterobacter cloacae, BAA2341
Procedure: as §1, §2

E. cloacae BAA-2468 = assay: MIC, micro-dilution broth method; conditions: Enterobacter cloacae, BAA2468
Procedure: as §1, §2

E. cloacae S28901.1 = assay: MIC, micro-dilution broth method; conditions: Enterobacter cloacae
Procedure: as §1, §2

E. coli AR-0346 = assay: MIC, micro-dilution broth method; conditions: Escherichia coli, AR0346
Procedure: as §1, §2

E. coli AR-0349 = assay: MIC, micro-dilution broth method; conditions: Escherichia coli, AR0349
Procedure: as §1, §2

E. coli AR-0493 = assay: MIC, micro-dilution broth method; conditions: Escherichia coli, AR0493
Procedure: as §1, §2

E. coli AR-0495 = assay: MIC, micro-dilution broth method; conditions: Escherichia coli, AR0495
Procedure: as §1, §2

E. coli BAA-2340 = assay: MIC, micro-dilution broth method; conditions: Escherichia coli, BAA2340
Procedure: as §1, §2

E. coli BAA-2469 [1] = assay: MIC, micro-dilution broth method; conditions: Escherichia coli, BAA2469
Procedure: as §1, §2

E. coli BAA-2471 = assay: MIC, micro-dilution broth method; conditions: Escherichia coli, BAA2471
Procedure: as §1, §2

E. coli F20987 = assay: MIC, micro-dilution broth method; conditions: Escherichia coli
Procedure: as §1, §2

E. coli M66623 = assay: MIC, micro-dilution broth method; conditions: Escherichia coli
Procedure: as §1, §2

E. coli MG1655 = assay: MIC, micro-dilution broth method; conditions: Escherichia coli
Procedure: as §1, §2

E. coli ΔrfaC JW3596 = assay: MIC, micro-dilution broth method; conditions: Escherichia coli
Procedure: as §1, §2

E. coli ΔtolC JW5503 = assay: MIC, micro-dilution broth method; conditions: Escherichia coli
Procedure: as §1, §2

K. pneumoniae AR-0347 = assay: MIC, micro-dilution broth method; conditions: Klebsiella pneumoniae, AR0347
Procedure: as §1, §2

K. pneumoniae BAA-1705 = assay: MIC, micro-dilution broth method; conditions: Klebsiella pneumoniae, BAA1705
Procedure: as §1, §2

K. pneumoniae BAA-2342 = assay: MIC, micro-dilution broth method; conditions: Klebsiella pneumoniae, BAA2342
Procedure: as §1, §2

K. pneumoniae BAA-2470 = assay: MIC, micro-dilution broth method; conditions: Klebsiella pneumoniae, BAA2470
Procedure: as §1, §2

K. pneumoniae BAA-2472 = assay: MIC, micro-dilution broth method; conditions: Klebsiella pneumoniae, BAA2472
Procedure: as §1, §2

K. pneumoniae BAA-2473 = assay: MIC, micro-dilution broth method; conditions: Klebsiella pneumoniae, BAA2473
Procedure: as §1, §2

K. pneumoniae M14723 = assay: MIC, micro-dilution broth method; conditions: Klebsiella pneumoniae
Procedure: as §1, §2

K. pneumoniae M67198 = assay: MIC, micro-dilution broth method; conditions: Klebsiella pneumoniae
Procedure: as §1, §2

K. pneumoniae M67297 = assay: MIC, micro-dilution broth method; conditions: Klebsiella pneumoniae
Procedure: as §1, §2

K. pneumoniae S20595 = assay: MIC, micro-dilution broth method; conditions: Klebsiella pneumoniae
Procedure: as §1, §2

K. pneumoniae S47889 = assay: MIC, micro-dilution broth method; conditions: Klebsiella pneumoniae
Procedure: as §1, §2

P. aeruginosa PA01 = assay: MIC, micro-dilution broth method; conditions: Pseudomonas aeruginosa
Procedure: as §1, §2

S. aureus ATCC 29213 = assay: MIC, micro-dilution broth method; conditions: for increase in MIC in the presence of serum: S. aureus ATCC 29213, +50% human serum vs none
Procedure: as §1, §2

E. coli BAA-2469 [2] = assay: Bioactivity against exemplary strains of bacteria (Table 5A); design: unit not given here; conditions: Strain 2: E. coli BAA-2469

Work on `Cc1c(CN(C)C(=O)/C=C/c2cnc3c(c2)CC(N)C(=O)N3)oc2ccccc12` (stereo not shown) [Debio-1452-NH3, (E)-3-(6-amino-7-oxo-5,6,7,8-tetrahydro-1,8-naphthyridin-3-yl)-N-methyl-N-((3-methylbenzofuran-2-yl)methyl)acrylamide hydrochloride] yielded an MIC (A. baumannii F19521; F19521) of 4 µg/mL, an MIC (A. baumannii KB304; KB304) of 64 µg/mL and an MIC (A. baumannii KB343; KB343) of 64 µg/mL. The MIC (A. baumannii KB357; KB357) was 64 µg/mL, the MIC (A. baumannii M13100; M13100) was 16 µg/mL and the MIC (A. baumannii W41979; W41979) was 4 µg/mL. It also gave an MIC (A. baumannii WO22; WO22) of 64 µg/mL, an MIC (E. cloacae ATCC 29893) of 8 µg/mL and an MIC (E. cloacae BAA-2341) of 8 µg/mL. The MIC (E. cloacae BAA-2468) was 8 µg/mL, the MIC (E. cloacae S28901.1; S28901.1) was 16 µg/mL and the MIC (E. coli AR-0346) was 8 µg/mL. For the same molecule, the MIC (E. coli AR-0349) was 2 µg/mL, the MIC (E. coli AR-0493) was 4 µg/mL and the MIC (E. coli AR-0495) was 4 µg/mL. The MIC (E. coli BAA-2340) was 4 µg/mL, the MIC (E. coli BAA-2469 [1]) was 2 µg/mL and the MIC (E. coli BAA-2471) was 4 µg/mL. The MIC (E. coli F20987; F20987) was 4 µg/mL, the MIC (E. coli M66623; M66623) was 8 µg/mL and the MIC (E. coli MG1655; MG1655) was 4 µg/mL. The MIC (E. coli ΔrfaC JW3596) was 0.25 µg/mL, the MIC (E. coli ΔtolC JW5503) was 0.062 µg/mL and the MIC (K. pneumoniae AR-0347) was 16 µg/mL. The MIC (K. pneumoniae BAA-1705) was 8 µg/mL, the MIC (K. pneumoniae BAA-2342) was 16 µg/mL and the MIC (K. pneumoniae BAA-2470) was 4 µg/mL. It also gave an MIC (K. pneumoniae BAA-2472) of 16 µg/mL, an MIC (K. pneumoniae BAA-2473) of 16 µg/mL and an MIC (K. pneumoniae M14723; M14723) of 16 µg/mL. It also gave an MIC (K. pneumoniae M67198; M67198) of 32 µg/mL, an MIC (K. pneumoniae M67297; M67297) of 32 µg/mL and an MIC (K. pneumoniae S20595; S20595) of 16 µg/mL. The MIC (K. pneumoniae S47889; S47889) was 8 µg/mL, the MIC (P. aeruginosa PA01; PA01) was over 64 µg/mL and the “increase in MIC in the presence of serum” value (S. aureus ATCC 29213) was 2 fold. For the same molecule, the MIC (S. aureus ATCC 29213; Staphylococcus aureus, ATCC29213, S. aureus ATCC 29213) was 0.03 µg/mL, the MIC (S. aureus ATCC 29213; Staphylococcus aureus, ATCC29213, S. aureus ATCC 29213 (+50% Human serum)) was 0.062 µg/mL and the Bioactivity (E. coli BAA-2469 [2]) was 4.
Molecule `Cc1c(CN(C)C(=O)/C=C/c2cnc3c(c2)CCC(=O)N3)oc2ccccc12` [Debio-1452, (E)-N-methyl-N-((3-methylbenzofuran-2-yl)methyl)-3-(7-oxo-5,6,7,8-tetrahydro-1,8-naphthyridin-3-yl)acrylamide, reference compound] has an MIC (A. baumannii F19521; A. baumannii F19521, read-out: MIC) of over 32 µg/mL, an MIC (A. baumannii KB304; A. baumannii KB304, read-out: MIC) of over 32 µg/mL and an MIC (A. baumannii KB343; A. baumannii KB343, read-out: MIC) of over 32 µg/mL. It also gave an MIC (A. baumannii KB357; A. baumannii KB357, read-out: MIC) of over 32 µg/mL, an MIC (A. baumannii M13100; A. baumannii M13100, read-out: MIC) of over 32 µg/mL and an MIC (A. baumannii W41979; A. baumannii W41979, read-out: MIC) of over 32 µg/mL. It also gave an MIC (A. baumannii WO22; A. baumannii WO22, read-out: MIC) of over 32 µg/mL, an MIC (E. cloacae ATCC 29893; E. cloacae ATCC 29893, read-out: MIC) of over 32 µg/mL and an MIC (E. cloacae BAA-2341; E. cloacae BAA-2341, read-out: MIC) of over 32 µg/mL. For the same molecule, the MIC (E. cloacae BAA-2468; E. cloacae BAA-2468, read-out: MIC) was over 32 µg/mL, the MIC (E. cloacae S28901.1; E. cloacae S28901.1, read-out: MIC) was over 32 µg/mL and the MIC (E. coli AR-0346; E. coli AR-0346, read-out: MIC) was over 32 µg/mL. The MIC (E. coli AR-0349; E. coli AR-0349, read-out: MIC) was 4 µg/mL (≈ 10.7 µM), the MIC (E. coli AR-0493; E. coli AR-0493, read-out: MIC) was over 32 µg/mL and the MIC (E. coli AR-0495; E. coli AR-0495, read-out: MIC) was 8 µg/mL (≈ 21.3 µM). For the same molecule, the MIC (E. coli BAA-2340; E. coli BAA-2340, read-out: MIC) was over 32 µg/mL, the MIC (E. coli BAA-2469 [1]; E. coli BAA-2469, read-out: MIC) was 4 µg/mL (≈ 10.7 µM) and the MIC (E. coli BAA-2471; E. coli BAA-2471, read-out: MIC) was 8 µg/mL (≈ 21.3 µM). For the same molecule, the MIC (E. coli F20987; E. coli F20987, read-out: MIC) was over 32 µg/mL, the MIC (E. coli M66623; E. coli M66623, read-out: MIC) was over 32 µg/mL and the MIC (E. coli MG1655; E. coli MG1655, read-out: MIC) was over 32 µg/mL. The MIC (E. coli ΔrfaC JW3596) was 0.5 µg/mL (≈ 1.33 µM), the MIC (E. coli ΔtolC JW5503) was 0.031 µg/mL (≈ 0.0826 µM) and the MIC (K. pneumoniae AR-0347; K. pneumoniae AR-0347, read-out: MIC) was over 32 µg/mL. It also gave an MIC (K. pneumoniae BAA-1705; K. pneumoniae BAA-1705, read-out: MIC) of over 32 µg/mL, an MIC (K. pneumoniae BAA-2342; K. pneumoniae BAA-2342, read-out: MIC) of over 32 µg/mL and an MIC (K. pneumoniae BAA-2470; K. pneumoniae BAA-2470, read-out: MIC) of 8 µg/mL (≈ 21.3 µM). The MIC (K. pneumoniae BAA-2472; K. pneumoniae BAA-2472, read-out: MIC) was over 32 µg/mL, the MIC (K. pneumoniae BAA-2473; K. pneumoniae BAA-2473, read-out: MIC) was over 32 µg/mL and the MIC (K. pneumoniae M14723; K. pneumoniae M14723, read-out: MIC) was over 32 µg/mL. For the same molecule, the MIC (K. pneumoniae M67198; K. pneumoniae M67198, read-out: MIC) was over 32 µg/mL, the MIC (K. pneumoniae M67297; K. pneumoniae M67297, read-out: MIC) was over 32 µg/mL and the MIC (K. pneumoniae S20595; K. pneumoniae S20595, read-out: MIC) was over 32 µg/mL. For the same molecule, the MIC (K. pneumoniae S47889; K. pneumoniae S47889, read-out: MIC) was over 32 µg/mL, the MIC (P. aeruginosa PA01; P. aeruginosa PA01, read-out: MIC) was over 32 µg/mL and the MIC (S. aureus ATCC 29213; S. aureus ATCC 29213) was 0.008 to 0.016 µg/mL. For the same molecule, the “increase in MIC in the presence of serum” value (S. aureus ATCC 29213) was 8 fold, the MIC (S. aureus ATCC 29213; Staphylococcus aureus, ATCC29213, S. aureus ATCC 29213 (+50% Human serum), read-out: MIC) was 0.125 µg/mL (≈ 0.333 µM) and the MIC (S. aureus ATCC 29213; Staphylococcus aureus, ATCC29213, S. aureus ATCC 29213, read-out: MIC) was 0.008 µg/mL (≈ 0.0213 µM). The Bioactivity (E. coli BAA-2469 [2]) was over 32.
